Assay results: patent US5593984A, “Cephalosporin derivatives” (Yuhan Corporation, priority 1992, dated 1997)
Values after ≈ are worked out from the molar mass of the structure shown.

Assays:
Format in all cases: cell-based
B. subtilis ATCC 6633 = assay: MIC by agar dilution, B. subtilis ATCC 6633; conditions: Bacillus subtilis, ATCC6633, 17 h; B. subtilis ATCC 6633; agar dilution, Mueller-Hinton agar; read-out: Minimal Inhibitory Concentration (MIC)
How it was run: (§1)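 Medium: Mueller-Hinton agar with compound in doubling dilutions. Inoculum: 10^6 CFU/ml. Incubation: 35°-37° C. for 17±1 hours.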

Staph. aureus ATCC 6538P = assay: MIC by agar dilution, Staph. aureus ATCC 6538P; conditions: Staphylococcus aureus, ATCC6538P, 17 h; Staph. aureus ATCC 6538P; agar dilution, Mueller-Hinton agar; read-out: Minimal Inhibitory Concentration (MIC)
How it was run: as §1

Staph. aureus Smith = assay: MIC by agar dilution, Staph. aureus Smith; conditions: Staphylococcus aureus, 17 h, Mueller-Hinton agar, read-out: Minimal Inhibitory Concentration (MIC)
How it was run: as §1

Staph. aureus C-57 = assay: MIC by agar dilution, Staph. aureus C-57; conditions: Staphylococcus aureus, C57, 17 h, Mueller-Hinton agar, read-out: Minimal Inhibitory Concentration (MIC)
How it was run: as §1

Staph. aureus C-5113 = assay: MIC by agar dilution, Staph. aureus C-5113; conditions: Staphylococcus aureus, C5113, 17 h, Mueller-Hinton agar, read-out: Minimal Inhibitory Concentration (MIC)
How it was run: as §1

Staph. aureus C-5216 = assay: MIC by agar dilution, Staph. aureus C-5216; conditions: Staphylococcus aureus, C5216, 17 h, Mueller-Hinton agar, read-out: Minimal Inhibitory Concentration (MIC)
How it was run: as §1

[1] = system: S. epidermidis ATCC 12228; assay: MIC by agar dilution, S. epidermidis ATCC 12228; conditions: Staphylococcus epidermidis, ATCC12228, 17 h; S. epidermidis ATCC 12228; agar dilution, Mueller-Hinton agar; read-out: Minimal Inhibitory Concentration (MIC)
How it was run: as §1

Ent. aerogenes IFO 12979 = assay: MIC by agar dilution, Ent. aerogenes IFO 12979; conditions: Klebsiella aerogenes, IFO12979, 17 h, Mueller-Hinton agar, read-out: Minimal Inhibitory Concentration (MIC)
How it was run: as §1

Ent. cloacae IFO 13535 = assay: MIC by agar dilution, Ent. cloacae IFO 13535; conditions: Enterobacter cloacae, IFO13535, 17 h; Ent. cloacae IFO 13535; agar dilution, Mueller-Hinton agar; read-out: Minimal Inhibitory Concentration (MIC)
How it was run: as §1

E. coli NIHJ JC-2 = assay: MIC by agar dilution, E. coli NIHJ JC-2; conditions: Escherichia coli, NIHJJC2, 17 h; E. coli NIHJ JC-2; agar dilution, Mueller-Hinton agar; read-out: Minimal Inhibitory Concentration (MIC)
How it was run: as §1

E. coli No. 29 = assay: MIC by agar dilution, E. coli No. 29; conditions: Escherichia coli, 17 h; E. coli No. 29; agar dilution, Mueller-Hinton agar; read-out: Minimal Inhibitory Concentration (MIC)
How it was run: as §1

E. coli DY-1 = assay: MIC by agar dilution, E. coli DY-1; conditions: Escherichia coli, DY1, 17 h; E. coli DY-1; agar dilution, Mueller-Hinton agar; read-out: Minimal Inhibitory Concentration (MIC)
How it was run: as §1

K. pneumoniae NCTC 9632 = assay: MIC by agar dilution, K. pneumoniae NCTC 9632; conditions: Klebsiella pneumoniae, NCTC9632, 17 h; K. pneumoniae NCTC 9632; agar dilution, Mueller-Hinton agar; read-out: Minimal Inhibitory Concentration (MIC)
How it was run: as §1

M. morganii DY-1 = assay: MIC by agar dilution, M. morganii DY-1; conditions: Morganella morganii, DY1, 17 h; M. morganii DY-1; agar dilution, Mueller-Hinton agar; read-out: Minimal Inhibitory Concentration (MIC)
How it was run: as §1

[2] = system: Ps. aeruginosa ATCC 10145; assay: MIC by agar dilution, Ps. aeruginosa ATCC 10145; conditions: Pseudomonas aeruginosa, ATCC10145, 17 h, Mueller-Hinton agar, read-out: Minimal Inhibitory Concentration (MIC)
How it was run: as §1

[3] = system: Ps. aeruginosa NCTC 10490; assay: MIC by agar dilution, Ps. aeruginosa NCTC 10490; conditions: Pseudomonas aeruginosa, NCTC10490, 17 h, Mueller-Hinton agar, read-out: Minimal Inhibitory Concentration (MIC)
How it was run: as §1

Ps. aeruginosa DY-2 = assay: MIC by agar dilution, Ps. aeruginosa DY-2; conditions: Pseudomonas aeruginosa, DY2, 17 h; Ps. aeruginosa DY-2; agar dilution, Mueller-Hinton agar; read-out: Minimal Inhibitory Concentration (MIC)
How it was run: as §1

P. vulgaris NCTC 8313 = assay: MIC by agar dilution, P. vulgaris NCTC 8313; conditions: Proteus vulgaris, NCTC8313, 17 h; P. vulgaris NCTC 8313; agar dilution, Mueller-Hinton agar; read-out: Minimal Inhibitory Concentration (MIC)
How it was run: as §1

Prov. stuartii IFO 12930 = assay: MIC by agar dilution, Prov. stuartii IFO 12930; conditions: Providencia stuartii, IFO12930, 17 h, Mueller-Hinton agar, read-out: Minimal Inhibitory Concentration (MIC)
How it was run: as §1

[4] = system: Ser. marcescens IFO 12648; assay: MIC by agar dilution, Ser. marcescens IFO 12648; conditions: Serratia marcescens, IFO12648, 17 h; Ser. marcescens IFO 12648; agar dilution, Mueller-Hinton agar; read-out: Minimal Inhibitory Concentration (MIC)
How it was run: as §1

MIC (B. subtilis ATCC 6633) [µg/mL]	MIC (Staph. aureus ATCC 6538P) [µg/mL]	MIC (Staph. aureus Smith) [µg/mL]	MIC (Staph. aureus C-57) [µg/mL]	MIC (Staph. aureus C-5113) [µg/mL]	MIC (Staph. aureus C-5216) [µg/mL]	MIC [1] [µg/mL]	MIC (Ent. aerogenes IFO 12979) [µg/mL]	MIC (Ent. cloacae IFO 13535) [µg/mL]	MIC (E. coli NIHJ JC-2) [µg/mL]	MIC (E. coli No. 29) [µg/mL]	MIC (E. coli DY-1) [µg/mL]	MIC (K. pneumoniae NCTC 9632) [µg/mL]	MIC (M. morganii DY-1) [µg/mL]	MIC [2] [µg/mL]	MIC [3] [µg/mL]	MIC (Ps. aeruginosa DY-2) [µg/mL]	MIC (P. vulgaris NCTC 8313) [µg/mL]	MIC (Prov. stuartii IFO 12930) [µg/mL]	MIC [4] [µg/mL]	SMILES
0.2 (≈ 0.389 µM)	0.39 (≈ 0.758 µM)	0.78 (≈ 1.52 µM)	6.25 (≈ 12.1 µM)	0.78 (≈ 1.52 µM)	0.78 (≈ 1.52 µM)	0.1 (≈ 0.194 µM)	0.012 (≈ 0.0233 µM)	0.025 (≈ 0.0486 µM)	0.012 (≈ 0.0233 µM)	0.012 (≈ 0.0233 µM)	0.025 (≈ 0.0486 µM)	0.025 (≈ 0.0486 µM)	0.05 (≈ 0.0972 µM)	0.39 (≈ 0.758 µM)	0.1 (≈ 0.194 µM)	0.78 (≈ 1.52 µM)	0.012 (≈ 0.0233 µM)	≤ 0.006	0.025 (≈ 0.0486 µM)	CO/N=C(\C(=O)N[C@@H]1C(=O)N2C(C(=O)[O-])=C(C[n+]3ccn4cccc4c3)CS[C@H]12)c1nsc(N)n1 [Ex. 48, 7-β-[(Z)-2-(5-amino-1,2,4-thiadiazol-3-yl)-2-methoxyiminoacetamido]-3-(pyrrolo [1,2-a]pyrazinium-2-yl)methyl-3-cephem-4-carboxylate]
0.2 (≈ 0.376 µM)	0.2 (≈ 0.376 µM)	0.39 (≈ 0.734 µM)	25 (≈ 47 µM)	1.56 (≈ 2.93 µM)	0.78 (≈ 1.47 µM)	0.1 (≈ 0.188 µM)	0.012 (≈ 0.0226 µM)	0.05 (≈ 0.0941 µM)	0.012 (≈ 0.0226 µM)	≤ 0.006	≤ 0.006	0.012 (≈ 0.0226 µM)	≤ 0.006	0.39 (≈ 0.734 µM)	0.2 (≈ 0.376 µM)	3.13 (≈ 5.89 µM)	≤ 0.006	≤ 0.006	0.012 (≈ 0.0226 µM)	Nc1nc(C(=NOCF)C(=O)NC2C(=O)N3C(C(=O)[O-])=C(C[n+]4ccn5cccc5c4)CSC23)cs1 (stereo not drawn) [Ex. 6, 7-β-[(Z)-2-(2-aminothiazol-4-yl)-2-fluoromethoxyiminoacetamido]-3-(pyrrolo[1,2-a]pyrazinium-2-yl)methyl-3-cephem-4-carboxylate]
0.1 (≈ 0.19 µM)	0.1 (≈ 0.19 µM)	0.39 (≈ 0.739 µM)	6.25 (≈ 11.8 µM)	0.39 (≈ 0.739 µM)	0.39 (≈ 0.739 µM)	0.025 (≈ 0.0474 µM)	0.012 (≈ 0.0227 µM)	0.2 (≈ 0.379 µM)	0.025 (≈ 0.0474 µM)	≤ 0.006	≤ 0.006	≤ 0.006	≤ 0.006	0.2 (≈ 0.379 µM)	0.2 (≈ 0.379 µM)	0.78 (≈ 1.48 µM)	≤ 0.006	0.012 (≈ 0.0227 µM)	≤ 0.006	CCON=C(C(=O)NC1C(=O)N2C(C(=O)[O-])=C(C[n+]3ccn4cccc4c3)CSC12)c1csc(N)n1 (stereo not drawn) [Ex. 3, 7-β-[(Z)-2-(2-aminothiazol-4-yl)-2-ethoxyiminoacetamido]-3-(pyrrolo[1,2-a]pyrazinium-2-yl)methyl-3-cephem-4-carboxylate]
0.39 (≈ 0.646 µM)	1.56 (≈ 2.58 µM)	1.56 (≈ 2.58 µM)	25 (≈ 41.4 µM)	1.56 (≈ 2.58 µM)	1.56 (≈ 2.58 µM)	0.1 (≈ 0.166 µM)	0.05 (≈ 0.0828 µM)	0.39 (≈ 0.646 µM)	0.1 (≈ 0.166 µM)	0.05 (≈ 0.0828 µM)	0.025 (≈ 0.0414 µM)	0.1 (≈ 0.166 µM)	0.2 (≈ 0.331 µM)	6.25 (≈ 10.3 µM)	3.13 (≈ 5.18 µM)	25 (≈ 41.4 µM)	0.012 (≈ 0.0199 µM)	0.1 (≈ 0.166 µM)	0.2 (≈ 0.331 µM)	CCO/N=C(\C(=O)N[C@@H]1C(=O)N2C(C(=O)[O-])=C(C[n+]3ccn4c(C(C)=O)cc(Cl)c4c3)CS[C@H]12)c1csc(N)n1 [Ex. 35, 7-β-[(Z)-2-(2-aminothiazol-4-yl)-2-ethoxyiminoacetamido]-3-(6-acetyl-8-chloropyrrolo[1,2-a]pyrazinium-2-yl)methyl-3-cephem-4-carboxylate]
